Tests used:
Details in all cases: in vivo
HLA-B*13:01 [1] = molecular target: T1, HLA-B*13:01 (Homo sapiens, UniProt P01889, A65T/A93T/A95T/D138N/D201E/D98Y/E176V/E204Q/E69M/E70A/G107R/K202T/L105A/L119I/N104T/N87E/Q94N/R106L/R155S/R169L/R180L/S101N/S121R/S35A/S48T/T118I/V127L/V36M/Y140L/Y91S)
HLA-B*13:01 [2] = molecular target: T1, HLA-B*13:01; remark: listed apart in the source
HLA-B*51:01 or B*51:02 = test system: HLA-B*51:01 or B*51:02

Structure (SMILES): NS(=O)(=O)Cc1noc2ccccc12 [zonisamide]
- DHR (%) carrying the allele (HLA-B*13:01 [1]): 100%
- DHR N (allele carriers / patients) (HLA-B*13:01 [1]): 3/3
- Sensitivity (HLA-B*13:01 [1]): 100.00%
- Specificity (HLA-B*13:01 [1]): 88.52%
- Cases N (allele carriers / patients) (HLA-B*13:01 [2]): 5/7
- OR (HLA-B*13:01 [2]): 19.3
- Cases N (allele carriers / patients) (HLA-B*51:01 or B*51:02): 4/7
- OR (HLA-B*51:01 or B*51:02): 8.3

From US12729404B2, “Method and kit for testing drug hypersensitivity reactions caused by sulfonamide derivative-based antiepileptic drug and use of the kit” (CHANG GUNG MEMORIAL HOSPITAL, LINKOU, priority 2020, dated 2026)
